The numbers were not newly measured in US20250114388A1, “ACTIVE PHARMACEUTICAL INGREDIENT COMPOSITIONS AND PREPARATION AND USES THEREOF” (Dr. Anti Fungus, LLC, priority 2023, published 2025), which cites them from elsewhere.

*1 amine or outer side, *2 acyl side, *3 side chain or, on linkers, in order; H or OH if unused. Where a SMILES comes first, the peptide text is derived from it. Bridges are numbered along the chain shown (N, C = ends). [ ]: non-standard residue; d: D form. The star is where a group is joined. pTerphenylCO(4''-OnC5H11) = CCCCCOc1ccc(-c2ccc(-c3ccc(C(=O)*)cc3)cc2)cc1; Orn(4R-OH,5R-OH) = O=C([C@H](C[C@@H](O)[C@@H](O)N[*:3])N[*:1])[*:2]; hTyr(3S-OH,4S-OH) = N[C@H](C(=O)O)[C@H](O)[C@@H](O)c1ccc(O)cc1; Pro(3S-OH,4S-Me) = C[C@H]1CN[C@H](C(=O)O)[C@H]1O; Hyp = O=C(O)[C@@H]1C[C@@H](O)CN1

Take `Clc1ccccc1C(c1ccccc1)(c1ccccc1)n1ccnc1` [clotrimazole]: the solubility in water entry is “insoluble”. In the case of `OC(Cn1cncn1)(Cn1cncn1)c1ccc(F)cc1F` [fluconazole], the solubility in water result was “sparingly soluble”.

As to `C[C@@H]1[C@H](O)[C@@H](C)/C=C/C=C/C=C/C=C/C=C/C=C/C=C/[C@H](O[C@@H]2O[C@H](C)[C@@H](O)[C@H](N)[C@@H]2O)C[C@@H]2O[C@](O)(C[C@@H](O)C[C@@H](O)[C@H](O)CC[C@@H](O)C[C@@H](O)CC(=O)O[C@H]1C)C[C@H](O)[C@H]2C(=O)O` [amphotericin B], the solubility in water result is “insoluble”. As for `Clc1ccc(COC(Cn2ccnc2)c2ccc(Cl)cc2Cl)c(Cl)c1` (centres unmarked) [miconazole], the solubility in water result is given as “insoluble”. For the molecule `Clc1ccc(COC(Cn2ccnc2)c2ccc(Cl)cc2Cl)cc1` (centres unmarked) [econazole], the solubility in water result is “insoluble”. In the case of `CN(C/C=C/C#CC(C)(C)C)Cc1cccc2ccccc12` [terbinafine], the solubility in water result is listed as “sparingly soluble”. For the molecule `CCCCCOc1ccc(-c2ccc(-c3ccc(C(=O)N[C@H]4C[C@@H](O)[C@@H](O)NC(=O)[C@@H]5[C@@H](O)[C@@H](C)CN5C(=O)[C@H]([C@@H](C)O)NC(=O)[C@H]([C@H](O)[C@@H](O)c5ccc(O)cc5)NC(=O)[C@@H]5C[C@@H](O)CN5C(=O)[C@H]([C@@H](C)O)NC4=O)cc3)cc2)cc1` [anidulafungine] ({pTerphenylCO(4''-OnC5H11)}-[Orn(4R-OH,5R-OH)]T[Hyp][hTyr(3S-OH,4S-OH)]T[Pro(3S-OH,4S-Me)]; lactam 1-C), the solubility in water result is “insoluble”. Consider `C[C@@H]1[C@H](O)[C@@H](C)/C=C/C=C/CC/C=C/C=C/C=C/C=C/C(O[C@H]2O[C@H](C)[C@@H](O)[C@H](N)[C@@H]2O)CC2O[C@](O)(CC(O)C(O)CCC(O)CC(O)CC(O)CC(=O)O[C@H]1C)CC(O)C2C(=O)O` (some centres unmarked) [nystatin], for which the solubility in water entry is recorded as “sparingly soluble”. On to `CC(=O)N1CCN(c2ccc(OCC3COC(Cn4ccnc4)(c4ccc(Cl)cc4Cl)O3)cc2)CC1` (centres unmarked) [ketoconazole], for which the solubility in water result was “insoluble”. Turning to `Cc1cccc(N(C)C(=S)Oc2ccc3ccccc3c2)c1` [tolnaftate], the solubility in water entry was “insoluble”. In the case of `CCC(C)n1ncn(-c2ccc(N3CCN(c4ccc(OCC5COC(Cn6cncn6)(c6ccc(Cl)cc6Cl)O5)cc4)CC3)cc2)c1=O` (centres unmarked) [itraconazole], the solubility in water result is given as “insoluble”.
